Assay results: patent US20100183504A1, “MULTIMODAL IMAGING PROBES FOR IN VIVO TARGETED AND NON-TARGETED IMAGING AND THERAPEUTICS” (priority 2007, published 2010)

Experiments:
Format in all cases: physicochemical
[1] = T1/T2 relaxation MRI on Bruker Avance 400 MHz (9.4 T) microimaging system; details: measured simultaneously with the nanoparticles at 400 MHz; repeated
Description: The concentrations of our solutions are given in terms of silanized nanoparticle concentration and not in terms of Gd^3+ present in solution because the latter is attached to the nanoparticles. At 1 μM concentration, the average distance between nanoparticles is over 100 nm. We determined the concentration of the nanoparticle solution by measuring the UV-vis spectrum. […] We used the following numbers: QD exciton peak at approximately 610 nm, fluorescence emission at approximately 630 nm, full width at half-maximum (fwhm) of 38 nm, extinction coefficient used 620 000 M^−1cm^−1 following published reports (Yu, et al. (2003) Chem. Mater. 15: 2854-2860). […] These latter numbers were computed from the concentrations given by the manufacturer and the OD of citrate-stabilized Au colloids measured directly out of the bottle.
(§1) All MRI experiments were performed on a Bruker Avance 400 MHz (9.4 T) spectrometer equipped with a high-resolution Micro5 microimaging system with a 25 mm RF coil. […] We also obtained quantitative evaluation of the longitudinal relaxation times, T1, by plotting M/Mo versus log(τ), that is, the residual magnetization as a function of the recovery time. T1 values were measured by fitting M(τ)/Mo to an single-exponential growth curve: (M(τ)/Mo)=(1−[…]). Transverse relaxation times were determined by a plot of log-(M/Mo) versus τ. […]

[2] = T1 and T2 relaxation time measurements on Bruker Minispecs at 20 and 60 MHz; details: 20-100 MHz; comparison line
Source text: After extensive purification from unbound Gd-DOTA, these samples were chemically analyzed by inductively coupled plasma mass spectrometry (ICP-MS) by measuring the total amount of Gd and Cd or Au ions. By assuming bulk parameters of the CdSe or Au lattice and the size of the nanoparticles (using tabulated values linking the size of the QDs to its optical properties, or the claimed size for Au nanocrystals), we deduced the number of Gd per silanized nanoparticle. The number of Gd^3+ […] SiO2-coated nanoparticle varied from 3 to greater than 300 and depends on the size of the initial nanoparticles and the conditions used during the conjugation of Gd-DOTA to the silanized nanoparticles. Notice that the same samples were used for MRI study and ICP-MS analysis.
T1 and T2 relaxation time measurements were performed on Bruker Minispecs operating at 1H resonance frequencies of 20 and 60 MHz. An inversion recovery pulse sequence was employed for T1 relaxation time measurements using a monoexponential fit to the recovery curve. For each experiment, 4 scans were collected with a recycle delay of 15 s. To obtain the recovery curve, 50 evenly spaced points were collected with the first point acquired at 5 ms. […]
(§2) The T2 times were calculated from a monoexponential fit to a spin echo decay curve using a Carr-Purcell-Meiboom-Gill (CPMG) pulse sequence. […]

[3] = Relaxivities summarised over the field strengths investigated or without stated field; details: three field strengths investigated
Description: T1 and T2 relaxation time measurements were performed on Bruker Minispecs operating at 1H resonance frequencies of 20 and 60 MHz. An inversion recovery pulse sequence was employed for T1 relaxation time measurements using a monoexponential fit to the recovery curve. For each experiment, 4 scans were collected with a recycle delay of 15 s. To obtain the recovery curve, 50 evenly spaced points were collected with the first point acquired at 5 ms. The last time point was collected at 4000 ms for short T1 samples and 10,000 ms for samples with long T1 so that each sample was allowed to fully recover. The receiver gain for each sample was set so that the signal amplitude was approximately 60%.
as §2, §1

[4] = Gd3+ release from DOTA, colorimetric Arsenazo test; details: several weeks
Description: The synthesis of Gd-DOTA (i.e., one Gd3+ ion chelated by DOTA) was performed according to a procedure adapted from previous reports (Wang et al. (1992) Inorg. Chem. 31: 1095-1099; Prantner et al. (2003) Mol. Imaging 2: […]). We dissolved p-NH2-Bn-DOTA (2-(4-aminobenzyl)-1,4,7,10-tet-raazacyclododecane-1,4,7,10-tetraacetic acid) in water and add an aqueous solution of GdCl3 (Sigma-Alrich), so as to have a 1:0.98 molar mixture of DOTA/Gd3+ and approximately 0.2 M concentration in DOTA. The solution was heated a few minutes to 80° C. to favor coordination of Gd3+ with the tetraazacy-clododecane ring. The pH of the solution droped below 1. We brought the pH to 3.5-4 by adding aliquots of 7 M NaOH and heat the solution back to 80° C. for a few minutes. At this early stage, heating produces acidification of the solution. […] At that stage, the solution was kept at 80° C. for 3 h. Completion of the Gd^3+ chelation was confirmed by a colorimetric assay using Arsenazo dye (Sigma-Alrich). This colorimetric dye reacts to the presence of unbound or free Gd^3+. The dye natural color is purple, but if it binds to Gd^3+ its color turns to blue. […] The stability of the Gd-DOTA has been studied using the colorimetric Arsenazo test.

Substance: Gd-DOTA
- r1 Gd^3+ ion relaxivity of unbound Gd-DOTA [1]: 3.7 ± 0.04 mM⁻¹ s⁻¹
- r2 Gd^3+ ion relaxivity of unbound Gd-DOTA [1]: 3.8 ± 0.2 mM⁻¹ s⁻¹
- r1 Gd^3+ ion relaxivity of unbound Gd-DOTA [2]: 3 to 5 mM⁻¹ s⁻¹
- relaxivities of unbound Gd-DOTA [3]: 3 to 12 mM⁻¹ s⁻¹
- Gd^3+ release from the DOTA ring [4]: No Gd^3+ release
